Experimental findings from ChEMBL document CHEMBL1153788, “Bioactive diterpene derivatives from the marine sponge Spongionella sp” (J Nat Prod, 2009) are described below.

The test system of one assay is PBMC. Kind of assay: Cytotoxicity against human PBMC cells assessed as decrease in luminescence after 24 hrs by luminescent cell viability assay. The class given is cell-based.
Another assay has as its system K562. Kind of assay: Cytotoxicity against human K562 cells assessed as decrease in luminescence after 24 hrs by luminescent cell viability assay. The class given is functional, cell-based. As to conditions: K562, 24 h.

The structures appear in SMILES notation.

Take `CC(=O)O[C@H]1O[C@H]2O[C@H]3OC(=O)/C(=C\C4CCCC(C)(C)C4)[C@H]3[C@H]2[C@@H]1OC(C)=O` (stereo partly specified) [GRACILIN K]: the IC50 (as a rule, the concentration that inhibits the measured activity by half) with PBMC turned out to be 9 µM; with K562, 8.5 µM.

For `CC(=O)O[C@@H]1O[C@H]2OC(=O)[C@H](C)C3=C([C@@]4(C)CCCC(C)(C)C4)CC[C@@H]1[C@H]32`, the concentration for half-maximal inhibition (IC50) in the assay with PBMC is 4.5 µM; in the assay on K562, 2.3 µM.

With `CC(=O)O[C@H]1O[C@H]2O[C@H]3OC(=O)/C(=C\CC4(OC(C)=O)CCCC(C)(C)C4)[C@H]3[C@H]2[C@@H]1OC(C)=O` (stereo partly specified) [GRACILIN J], the 50% inhibitory concentration (IC50) in the assay on PBMC was found to be 30 µM; in the assay on K562, 15 µM.
